# Test results reported in patent US12358954B2, “Capsid-modified rAAV vector compositions and methods therefor” (priority 2012, dated 2025).
# Peptide text beside a SMILES is read from it. * marks the point of attachment. Cbz = O=C(OCc1ccccc1)*
# Tests used:
# [1] = test system: monocyte-derived dendritic cells (moDCs); assay: AAV2 vector transduction of monocyte-derived dendritic cells (moDCs); format: cell-based, human; conditions: 50 μM, WT scAAV2-EGFP, 48 hrs p.i.
# Experimental: Cells and Antibodies. HEK293, HeLa and NIH3T3 cells were obtained from the American Type Culture Collection and maintained as monolayer cultures in DMEM (Invitrogen, Inc.) supplemented with 10% FBS (Sigma-Aldrich Co.) and antibiotics (Lonza, Inc.). Leukapheresis-derived peripheral blood mononuclear cells (PBMCs) (AllCells) were purified on Ficoll-Paque (GEHeathCare), resuspended in serum-free AIM-V medium (Lonza, Inc.), and semi-adherent cell fractions were incubated for 7 days with recombinant human IL-4 (500 U/mL) and GM-CSF (800 U/mL) (R&D Systems). Cell maturation was initiated with a cytokine mixture including 10 ng/mL TNF-α, 10 ng/mL IL-1, 10 ng/mL IL-6, and 1 mg/mL PGE2 (R&D Systems) for 48 hrs. Prior to EGFP expression cells were characterized for co-stimulatory molecules expression to ensure that they met the typical phenotype of mature dendritic cells (mDC) (CD80, RPE, murine IgG1; CD83, RPE, murine IgG1; CD86, FITC, murine IgG1; Invitrogen, Inc.). (Jayandharan et al., 2011)
# Recombinant AAV Vector Transduction Assays In Vitro. […] Transgene expression was assessed as the total area of green fluorescence (pixel2) per visual field (mean±SD) as described previously (Markusic et al., 2011; Jayandharan et al., 2011). Analysis of variance was used to compare test results and the control, which were determined to be statistically significant.
# [2] = test system: HeLa cells; assay: Recombinant AAV2 vector transduction assay in vitro (EGFP imaging); format: cell-based, human
# Experimental: Recombinant AAV2 Vector Transduction Assays in Vitro. Approximately 1×10^5 HeLa cells were used for transductions with recombinant AAV2 vectors. The transduction efficiency was measured 48-hr post-transduction by EGFP imaging using fluorescence microscopy. Images from three to five visual fields were analyzed quantitatively by ImageJ analysis software (NIH, Bethesda, Md., USA). Transgene expression was assessed as total area of green fluorescence (pixel^2) per visual field (mean±SD). Analysis of variance (ANOVA) was used to compare between test results and the control and they were determined to be statistically significant.
# The transduction efficiency of each of the tyrosine-mutant vectors was analyzed and compared with the WT scAAV2-EGFP vector in HeLa cells in vitro under identical conditions. […] Specifically, the transduction efficiency of Y444F, Y500F, Y730F vectors was ˜8- to 11-fold higher than the WT vector.
# In a second study, HeLa cells, either mock-treated or treated with Tyr23, a specific inhibitor of EGFR-PTK, or MG132, a proteasome inhibitor, both known to increase the transduction efficiency of AAV vectors, were mock-infected or infected with the WT or Y730F scAAV2-EGFP vectors.
# [3] = test system: Huh7 cells; assay: AAV3 vector transduction assay in Huh7 cells; format: cell-based, human; conditions: increasing concentrations, 2 hr
# Experimental: (§1) AAV Vector Transduction Assays. Huh7 or HeLa cells were seeded in 96-well plates at a concentration of 5,000 cells per well in complete DMEM medium. AAV infections were performed in serum- and antibiotic-free DMEM medium. Hep293TT cells were seeded in 96-well plates at a concentration of 10,000 cells per well in complete RPMI medium. The infections were performed in serum- and antibiotic-free RPMI medium. The expression of EGFP was analyzed by direct fluorescence imaging 72 hrs' post-transduction.
# [4] = test system: Hep293TT cells; assay: AAV3 vector transduction assay in Hep293TT cells; format: cell-based, human
# Experimental: as §1
# [5] = test system: HeLa cells; assay: scAAV2 transduction of HeLa cells with MG132 or Tyr23 (positive control); format: cell-based, human; conditions: MG132 5 μM; Tyr23 200 μM
# Experimental: as §1
# Proteasome Inhibitors Increase the Transduction Efficiency of AAV3 Vectors. […] To evaluate whether MG132 can also improve AAV3 trafficking in target cells, Huh7, a well-established human hepatocellular carcinoma cell line (Nakabayashi et al., 1982), and Hep293TT, a recently established human hepatoblastoma cell line (Chen et al., 2009), were either mock-treated or treated with increasing concentrations of MG132. […] Transgene expression was determined by fluorescence microscopy 72 hrs post-transduction.
# Previous studies have also shown that inhibition of EGFR-PTK signaling by Tyrphostin 23 (Tyr23), a specific inhibitor of EGFR-PTK (May et al., 1998), modulates the Ub/proteasome pathway, which in turn, facilitates intracellular trafficking and transgene expression mediated by AAV2 vectors (Zhong et al., 2007). […] Transgene expression was determined 72 hr post-transduction.
# [6] = test system: HEK293 cells; assay: AAV2 vector transduction assay in HEK293 cells (serine mutants, kinase inhibitors); format: cell-based, human; conditions: 50 μM, 1 hr; 1,000 vgs per cell
# Experimental: Recombinant AAV Vector Transduction Assays In Vitro. HEK293 or monocyte-derived dendritic cells (moDCs), were transduced with AAV2 vectors with 1,000 vgs/cell or 2,000 vgs/cell respectively, and incubated for 48 hr. Alternatively, cells were pretreated with 50 μM of selective serine/threonine kinase inhibitors 2-(2-hydroxyethylamino)-6-aminohexylcarbamic acid tert-butyl ester-9-isopropylpurine (for CaMK-II), anthra[1,9-cd]pyrazol-6(2H)-one, 1,9-pyrazoloanthrone (for JNK), and 4-(4-fluorophenyl)-2-(4-methylsulfinylphenyl)-5-(4-pyridyl)1H-imidazole (for MAPK) (CK59, JNK inhibitor 2, PD 98059, Calbiochem), 1 hr before transduction. Transgene expression was assessed as the total area of green fluorescence (pixel2) per visual field (mean±SD) as described previously (Markusic et al., 2011; Jayandharan et al., 2011). Analysis of variance was used to compare test results and the control, which were determined to be statistically significant.
# [7] = test system: human CD34+ cells; assay: Ex vivo transduction of human CD34+ cells by AAV serotype and tyrosine-mutant AAV6 vectors; format: cell-based
# Experimental: Human bone marrow CD34^+ and umbilical cord blood CD34^+ cells either were purchased from All-Cells (Berkeley, Calif., USA), or were obtained under an institutional review board-approved protocol, and maintained in either StemSpan SFEM medium ([…] Technologies, Inc, Vancouver, BC, CANADA) or IMDM with 10 ng/mL rhIL6 (PeproTech), 10 ng/mL rhIL3 (PeproTech, Rocky Hill, N.J., USA) and 1 ng/mL rhSCF (R&D Systems, Minneapolis, Minn., USA). CD34^+ cell purity was determined by flow cytometry and was >90%. Mouse HSCs, which were positive for Sca-1 and c-kit and negative for lineage markers (c-kit^+, Sca-1^+, lin^−), were isolated from 4-month-old male C57BL/6 mice as previously reported with slight modification. Briefly, femurs and tibias were obtained from C57BL/6 mice, and bone marrow cells were flushed from the bones with phosphate-buffered saline (PBS). […] APC-conjugated CD117 (c-kit) antibody and Alexa Fluor 700 conjugated Sca-1 antibody (Miltenyi Biotec Inc) were used during fluorescence-activated cell sorting (FACS). […]
# Ex vivo transduction of HSCs. […] Mock-infected or infected cells were infused into recipient mice immediately after infection, or examined for transgene expression by fluorescence microscopy or by flow cytometry (Accuri C6; BD Biosciences) 48-72 hrs after infection.
molecule,measurement,setting,value
"O=C1c2ccccc2-c2n[nH]c3cccc1c23 [JNK inhibitor, anthra[1,9-cd]pyrazol-6(2H)-one, 1,9-pyrazoloanthrone]",increase of EGFP expression levels by inhibitor pre-treatment,[1],~2 fold
CC(C)C[C@@H](C=O)NC(=O)[C@H](CC(C)C)NC(=O)[C@H](CC(C)C)NC(=O)OCc1ccccc1 [MG132] (Cbz-Leu-Leu-Leu-aldehyde),increase in transduction efficiency of WT scAAV2-EGFP by pretreatment,[2],~6 fold
same,transduction efficiency of scAAV3 vectors after treatment,[3],dose-dependent increase
same,amounts of internalized viral DNA in presence or absence of inhibitor,[4],no significant difference
same,transduction efficiency of scAAV3 vectors after treatment,[4]; 2 hr treatment,dose-dependent increase
same,transduction efficiency of scAAV2 vectors after pretreatment,[5],significantly increased
"C[S+]([O-])c1ccc(-c2nc(-c3ccc(F)cc3)c(-c3ccncc3)[nH]2)cc1 (centres unmarked) [p38 MAPK inhibitor, 4-(4-fluorophenyl)-2-(4-methylsulfinylphenyl)-5-(4-pyridyl)1H-imidazole]",transduction efficiency of ssAAV2 and scAAV2 vectors after inhibitor pre-treatment,[6],most effective
epidermal growth factor: epidermal growth factor,effect on transduction efficiency of AAV6 vectors in CD34+ cells,[7],no effect
